From patent publication US10736883B2, “Triazole furan compounds as agonists of the APJ receptor” (AMGEN INC., priority 2016, dated 2020)

molecular target: APJ receptor (Homo sapiens (Human), UniProt P35414); experiment: [35S]GTPγS binding assay on membranes from CHO cells stably expressing human APJ receptor; format: biochemical; conditions: membranes of CHO cells stably expressing human APJ receptor, means of several independent experiments, read-out: Activity hAPJ SPA EC50 IP
Procedure: The human APJ receptor was cloned by polymerase chain reaction and the gene encoding the receptor was subcloned in pFLAG-CMV™-3 expression vector (Sigma, Saint Louis, Mo. USA) in-house at Amgen. A GTPγS binding assay was performed on membranes prepared from CHO cells stably expressing human APJ receptor. The optimum experimental conditions for the concentrations of GDP, MgCl2, and NaCl in the assay buffer were initially determined. The assay was performed in assay buffer [20 mM HEPES, pH 7.5, 5 mM MgCl2, and 0.1% (w/v) BSA with 200 mM NaCl, 3 μM GDP] and membranes expressing human APJ receptor/well along with WGA PS beads. The reaction was initiated by addition of 0.2 nM [^35S]GTPγS (Perkin Elmer Life and Analytical Sciences, Waltham USA) in the absence or presence of various ligands and incubated at RT for 90 min. Nonspecific binding was determined in the presence of 100 μM GTPγS and was always less than 0.2% of total binding. All the results presented are means of several independent experiments and analyzed by non-linear regression methods using commercially available program Prism (GraphPad, San Diego, Calif.) to obtain EC50 detailed in Table 26.

Chain of APJ receptor (P35414 whole entry): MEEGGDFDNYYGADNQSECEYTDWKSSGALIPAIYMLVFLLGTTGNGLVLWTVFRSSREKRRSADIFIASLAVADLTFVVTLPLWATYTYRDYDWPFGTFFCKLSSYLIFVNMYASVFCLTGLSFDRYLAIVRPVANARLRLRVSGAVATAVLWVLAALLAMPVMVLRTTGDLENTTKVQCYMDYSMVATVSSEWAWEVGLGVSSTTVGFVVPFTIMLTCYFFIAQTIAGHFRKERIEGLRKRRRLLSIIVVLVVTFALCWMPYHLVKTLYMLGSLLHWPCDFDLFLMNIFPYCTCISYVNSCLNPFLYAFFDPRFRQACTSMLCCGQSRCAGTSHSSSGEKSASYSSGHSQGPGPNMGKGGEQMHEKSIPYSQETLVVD

Row | Structure (SMILES) | EC50
1 | COc1cccc(OC)c1-n1c(NS(=O)(=O)CCN2C(=O)[C@@H](C)C[C@]2(C)C#N)nnc1-c1ccco1 (single isomer, unassigned) [Example 168.0] | 0.97 nM
2 | COc1cccc(OC)c1-n1c(NS(=O)(=O)[C@H](C)[C@@H](O)c2ncc(F)cn2)nnc1-c1ccc(C)o1 (single isomer, unassigned) [Example 93.0, (1R,2S)—N-(4-(2,6-Dimethoxyphenyl)-5-(5-methyl-2-furanyl)-4H-1,2,4-triazol-3-yl)-1-(5-fluoro-2-pyrimidinyl)-1-hydroxy-2-propanesulfonamide or (1S,2R)—N-(4-(2,6-dimethoxyphenyl)-5-(5-methyl-2-furanyl)-4H-1,2,4-triazol-3-yl)-1-(5-fluoro-2-pyrimidinyl)-1-hydroxy-2-propanesulfonamide] | 0.14 nM
3 | COc1cccc(OC)c1-n1c(NS(=O)(=O)[C@@H]2C[C@@H](c3ccc(F)cc3)CN(C(C)=O)C2)nnc1-c1ccc(C)o1 (single isomer, unassigned) [Example 171.0, (3R,5S)-1-Acetyl-N-(4-(2,6-dimethoxyphenyl)-5-(5-methyl-2-furanyl)-4H-1,2,4-triazol-3-yl)-5-(4-fluorophenyl)-3-piperidinesulfonamide or (3S,5R)-1-acetyl-N-(4-(2,6-dimethoxyphenyl)-5-(5-methyl-2-furanyl)-4H-1,2,4-triazol-3-yl)-5-(4-fluorophenyl)-3-piperidinesulfonamide] | 1.2 nM
4 | COCC(COC)n1c(NS(=O)(=O)[C@@H](C)[C@@H](OC(C)C)c2ncc(Cl)cn2)nnc1-c1ccc(C)o1 [Example 392.0, (1S,2S)-1-(5-chloro-2-pyrimidinyl)-N-(4-(1,3-dimethoxy-2-propanyl)-5-(5-methyl-2-furanyl)-4H-1,2,4-triazol-3-yl)-1-(2-propanyloxy)-2-propanesulfonamide] | 0.55 nM
5 | COc1cccc(OC)c1-n1c(NS(=O)(=O)[C@@H](C)[C@H](OC)c2ncc(F)cn2)nnc1-c1ccc(C)o1 (single isomer, unassigned) [Example 116.0, (1R,2S)-N-(4-(2,6-dimethoxyphenyl)-5-(5-methylfuran-2-yl)-4H-1,2,4-triazol-3-yl)-1-(5-fluoropyrimidin-2-yl)-1-methoxypropane-2-sulfonamide or (1S,2R)-N-(4-(2,6-dimethoxyphenyl)-5-(5-methylfuran-2-yl)-4H-1,2,4-triazol-3-yl)-1-(5-fluoropyrimidin-2-yl)-1-methoxypropane-2-sulfonamide] | 0.056 nM
6 | COc1cccc(OC)c1-n1c(NS(=O)(=O)[C@H]2C[C@@H](O)CN(c3cncc(C#N)c3)C2)nnc1-c1ccc(C)o1 (single isomer, unassigned) [Example 325.0, (3S,5R)-1-(5-Cyano-3-pyridinyl)-N-(4-(2,6-dimethoxyphenyl)-5-(5-methyl-2-furanyl)-4H-1,2,4-triazol-3-yl)-5-hydroxy-3-piperidinesulfonamide or (3R,5S)-1-(5-cyano-3-pyridinyl)-N-(4-(2,6-dimethoxyphenyl)-5-(5-methyl-2-furanyl)-4H-1,2,4-triazol-3-yl)-5-hydroxy-3-piperidinesulfonamide] | 0.23 nM
7 | COc1ncnc(OC)c1-n1c(NS(=O)(=O)[C@@H](C)[C@@H](OC(C)C)c2ncc(C)cn2)nnc1-c1ccc(C)o1 [Example 401.0, (1S,2S)-N-(4-(4,6-dimethoxypyrimidin-5-yl)-5-(5-methylfuran-2-yl)-4H-1,2,4-triazol-3-yl)-1-isopropoxy-1-(5-methylpyrimidin-2-yl)propane-2-sulfonamide] | 0.53 nM
8 | COc1cccc(OC)c1-n1c(NS(=O)(=O)[C@H]2C[C@@H](O)CN(c3ccc(F)c(C#N)c3)C2)nnc1-c1ccc(C)o1 (racemic) [Example 329.0, (3S,5R)-1-(3-Cyano-4-fluorophenyl)-N-(4-(2,6-dimethoxyphenyl)-5-(5-methyl-2-furanyl)-4H-1,2,4-triazol-3-yl)-5-hydroxy-3-piperidinesulfonamide and (3R,5S)-1-(3-cyano-4-fluorophenyl)-N-(4-(2,6-dimethoxyphenyl)-5-(5-methyl-2-furanyl)-4H-1,2,4-triazol-3-yl)-5-hydroxy-3-piperidinesulfonamide] | 0.38 nM
9 | COc1ccccc1-n1c(NS(=O)(=O)[C@@H](C)Cc2ncc(F)cn2)nnc1-c1ccc(C)o1 (racemic) [Example 295.0, (2S)-1-(5-fluoro-2-pyrimidinyl)-N-(4-(2-methoxyphenyl)-5-(5-methyl-2-furanyl)-4H-1,2,4-triazol-3-yl)-2-propanesulfonamide and (2R)-1-(5-fluoro-2-pyrimidinyl)-N-(4-(2-methoxyphenyl)-5-(5-methyl-2-furanyl)-4H-1,2,4-triazol-3-yl)-2-propanesulfonamide] | 6.1 nM
10 | COc1cccc(OC)c1-n1c(NS(=O)(=O)[C@H](C)[C@@H](O)c2ccc(C)cn2)nnc1-c1ccc(C)o1 (single isomer, unassigned) [Example 65.0] | 0.31 nM
11 | COc1cccc(OC)c1-n1c(NS(=O)(=O)C[C@@](C)(O)c2ncc(C#N)cn2)nnc1-c1ccc(C)o1 (single isomer, unassigned) [Example 248.0, (2S)-2-(5-Cyano-2-pyrimidinyl)-N-(4-(2,6-dimethoxyphenyl)-5-(5-methyl-2-furanyl)-4H-1,2,4-triazol-3-yl)-2-hydroxy-1-propanesulfonamide or (2R)-2-(5-cyano-2-pyrimidinyl)-N-(4-(2,6-dimethoxyphenyl)-5-(5-methyl-2-furanyl)-4H-1,2,4-triazol-3-yl)-2-hydroxy-1-propanesulfonamide] | 1.6 nM

The next lines start with the values.

Row | EC50 | Structure (SMILES)
12 | 0.32 nM | COc1cccc(OC)c1-n1c(NS(=O)(=O)C[C@H](O)c2ccc(C#N)cn2)nnc1-c1ccc(C)o1 (single isomer, unassigned) [Example 66.0, (2R)-2-(5-Cyano-2-pyridinyl)-N-(4-(2,6-dimethoxyphenyl)-5-(5-methyl-2-furanyl)-4H-1,2,4-triazol-3-yl)-2-hydroxyethanesulfonamide or (2S)-2-(5-cyano-2-pyridinyl)-N-(4-(2,6-dimethoxyphenyl)-5-(5-methyl-2-furanyl)-4H-1,2,4-triazol-3-yl)-2-hydroxyethanesulfonamide]
13 | 1.9 nM | COc1cccc(OC)c1-n1c(NS(=O)(=O)[C@H](C)Cc2ccc(C)nn2)nnc1-c1ccc(C)o1 (single isomer, unassigned) [Example 31.0, (2R)—N-(4-(2,6-dimethoxyphenyl)-5-(5-methyl-2-furanyl)-4H-1,2,4-triazol-3-yl)-1-(6-methyl-3-pyridazinyl)-2-propanesulfonamide or (2S)—N-(4-(2,6-dimethoxyphenyl)-5-(5-methyl-2-furanyl)-4H-1,2,4-triazol-3-yl)-1-(6-methyl-3-pyridazinyl)-2-propanesulfonamide]
14 | 0.24 nM | COc1cccc(OC)c1-n1c(NS(=O)(=O)[C@@H](C)[C@@H](O)c2ccc(C)cn2)nnc1-c1ccc(C)o1 (single isomer, unassigned) [Example 63.0]
15 | 0.26 nM | COc1cccc(OC)c1-n1c(NS(=O)(=O)[C@@H](C)[C@@H](O)c2ccc(Cl)cc2S(C)(=O)=O)nnc1-c1ccc(C)o1 (single isomer, unassigned) [Example 153.0, (1R,2R)-1-(4-Chloro-2-(methylsulfonyl)phenyl)-N-(4-(2,6-dimethoxyphenyl)-5-(5-methyl-2-furanyl)-4H-1,2,4-triazol-3-yl)-1-hydroxy-2-propanesulfonamide or (1S,2S)-1-(4-chloro-2-(methylsulfonyl)phenyl)-N-(4-(2,6-dimethoxyphenyl)-5-(5-methyl-2-furanyl)-4H-1,2,4-triazol-3-yl)-1-hydroxy-2-propanesulfonamide]
16 | 0.72 nM | COc1cccc(OC)c1-n1c(NS(=O)(=O)[C@@H](C)[C@H](O)c2cn(C)cn2)nnc1-c1ccc(C)o1 (single isomer, unassigned) [Example 273.0, (1R,2S)—N-(4-(2,6-Dimethoxyphenyl)-5-(5-methyl-2-furanyl)-4H-1,2,4-triazol-3-yl)-1-hydroxy-1-(1-methyl-1H-imidazol-4-yl)-2-propanesulfonamide or (1S,2R)—N-(4-(2,6-dimethoxyphenyl)-5-(5-methyl-2-furanyl)-4H-1,2,4-triazol-3-yl)-1-hydroxy-1-(1-methyl-1H-imidazol-4-yl)-2-propanesulfonamide]
17 | 3.8 nM | COc1cccc(OC)c1-n1c(NS(=O)(=O)[C@@H](C)Cc2cnc(C)cn2)nnc1-c1ccc(C)o1 (single isomer, unassigned) [Example 38.0, (2S)—N-(4-(2,6-dimethoxyphenyl)-5-(5-methyl-2-furanyl)-4H-1,2,4-triazol-3-yl)-1-(5-methyl-2-pyrazinyl)-2-propanesulfonamide or (2R)—N-(4-(2,6-dimethoxyphenyl)-5-(5-methyl-2-furanyl)-4H-1,2,4-triazol-3-yl)-1-(5-methyl-2-pyrazinyl)-2-propanesulfonamide]
18 | 0.11 nM | COc1cccc(OC)c1-n1c(NS(=O)(=O)[C@@H](C)[C@@H](O)c2ccc(F)cn2)nnc1-c1ccc(C)o1 (single isomer, unassigned) [Example 57.0]
